Consider six compounds from PubChem BioAssay (NCI).

Structures are written as SMILES. Several values for one entry are separate records, joined by “and”; a condition that tells them apart may be missing. Equal values may be shown once.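 Interpolation was linear, between the two tested concentrations surrounding the appropriate level; five concentrations were tested over 48 hours in 96-well plates. The concentration for 50% growth inhibition is given as GI50. TGI marks complete inhibition of growth.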

Holding throughout (test): inhibition of tumour cell growth, NCI panel, 48 h
The subject of experiment [1] is A549 NSCLC.
Experiment [2] concerns MCF7 breast.
Experiment [3] deals with OVCAR-4 ovarian.
In experiment [4] the test system is SF-539 CNS.
Experiment [5] relates to SK-MEL-2 melanoma.
The test system of experiment [6] is SK-MEL-28 melanoma.
Experiment [7] deals with SNB-19 CNS.
Experiment [8] has as its system SW-620 colon.
For experiment [9], the system named is U251 CNS.
Experiment [10] concerns UACC-62 melanoma.

`COc1ccccc1CNCCCN1C(=O)c2ccc3c4c(ccc(c24)C1=O)C(=O)N(CCCNCc1ccccc1OC)C3=O`: the GI50 in experiment [1] is 0.2 µM; in [2], 0.108 µM; in experiment [3], 0.101 µM; in [4] it was 0.221 µM; in [5] it was 0.203 µM; in [6] it was 0.436 µM. The GI50 in experiment [7] was 0.159 µM; in experiment [8], 0.0861 µM; in experiment [9] it was 0.164 µM; in experiment [10] it was 0.198 µM. Further, the TGI came to 0.46 µM in experiment [1]; 0.329 µM in experiment [2]; 0.231 µM in [3]; 0.612 µM in experiment [4]; 0.427 µM in experiment [5]; 0.876 µM in experiment [6]. Further, the TGI turned out to be 0.347 µM in experiment [7], 0.298 µM in experiment [8], 0.447 µM in experiment [9] and 0.407 µM in [10].
`CN(c1ccccc1)c1c2ccccc2nc2[nH]c3ccccc3c12`: the GI50 in [1] is 0.943 µM; in [2] it was 0.769 µM; in experiment [3], 4.42 µM; in experiment [4], 1.91 µM; in experiment [5], 7.71 µM; in experiment [6], 2.08 µM. Further, the GI50 in experiment [7] was 3.77 µM; in [8] it was 2.04 µM; in experiment [9] it was 1.68 µM; in [10], 1.5 µM. The TGI is 3.27 µM in experiment [1]; greater than 48.7 µM in experiment [3]; 4.59 µM in [4]; 7.42 µM in experiment [6]; 15.5 µM in [7]; 8.82 µM in [8]. Also, the TGI is greater than 25.5 µM in experiment [9] and 4.21 µM in experiment [10].
On to `O=C1NC(=O)C2C3C=CC(C12)C1C2C(=O)NC(=O)C2C31` (stereo unspecified), for which the GI50 was 172 µM in experiment [1]; 537 µM in experiment [2]; greater than 1000 µM in experiment [3]; 316 µM in [4]; greater than 719 µM in experiment [5]; 938 µM in experiment [6]. Besides, the GI50 in [7] is 327 µM; in experiment [10], 636 µM. The TGI in [1] is 250 µM and > 1000 µM; in experiment [2] it was 250 µM and > 1000 µM; in [3], 250 µM and > 1000 µM; in experiment [4] it was 199 µM and > 1000 µM; in experiment [5], 244 µM and > 1000 µM; in experiment [6], 244 µM and > 1000 µM. In addition, the TGI in [7] is 238 µM and > 904 µM; in [8], > 67.4 µM and 203 µM and > 1000 µM; in experiment [9], 244 µM and > 1000 µM; in experiment [10] it was 227 µM and > 1000 µM.
For the compound `COc1ccc(-n2c(=O)c3ccccc3n(Cc3ccc(C(=O)NO)cc3)c2=O)cc1`, the GI50 in [1] was 4.1 µM; in experiment [2] it was 2.68 µM; in experiment [3], 2.86 µM; in [4], 1.93 µM; in experiment [5] it was 2.31 µM; in [6], 2.18 µM. In addition, the GI50 was 2.96 µM in [7], 2.13 µM in [8], 1.78 µM in experiment [9] and 1.8 µM in experiment [10]. Besides, the TGI amounted to 16.3 µM in experiment [1]; 76.4 µM in experiment [2]; 20 µM in experiment [3]; 5.25 µM in [4]; 7.13 µM in experiment [5]; 5.83 µM in [6]. Also, the TGI came to 18.5 µM in experiment [7], 6.97 µM in experiment [8], 3.58 µM in [9] and 4.28 µM in experiment [10].
As to `O=C1[C@H](Cc2ccc(O)cc2)N2C(=O)CCN(C(=O)NCc3ccccc3)[C@H]2CN1Cc1cccc2ccccc12`, the GI50 in experiment [1] was 2.66 µM; in [2] it was 6.02 µM; in experiment [3], 0.781 µM; in experiment [4] it was 0.926 µM; in experiment [5], 2.64 µM; in experiment [6] it was 0.79 µM. Further, the GI50 in experiment [7] is 0.868 µM; in experiment [8], 4.49 µM; in [9] it was 0.985 µM; in experiment [10] it was 4.45 µM. Besides, the TGI in experiment [1] was greater than 50.6 µM; in experiment [2], 39 µM; in [3], greater than 49.9 µM; in experiment [4] it was 7.4 µM; in [5], 9.18 µM; in experiment [6], 9.63 µM. The TGI in experiment [7] was greater than 100 µM; in [8] it was greater than 55 µM; in [9], 18.6 µM; in experiment [10] it was 25 µM.
As to `O=C1NC(c2ccccc2Cl)Nc2ccccc21` (stereo unspecified), the TGI in [1] was greater than 100 µM; in experiment [2], greater than 100 µM; in [3] it was greater than 100 µM; in experiment [4], 32.6 µM; in [5], 48.7 µM; in experiment [6] it was greater than 100 µM. For the same compound, the TGI in experiment [7] was greater than 74 µM; in experiment [8], greater than 30.1 µM; in experiment [9], greater than 69.7 µM; in experiment [10], greater than 100 µM.
